From PMC6385020 (Molecules, 2019)

Columns and labels:
[1] = tested on: F-21-T (DNA, G4) GGGTTAGGGTTAGGGTTAGGG; test: FRET-melting; settings: 10 mM KCl, 90 mM LiCl; 10 mM lithium cacodylate pH 7.3; 1 µM compound, 0.2 µM DNA
[2] = tested on: F-myc-T (DNA, G4) TGAGGGTGGGTAGGGTGGGTAA; test: FRET-melting; settings: 1 mM KCl, 99 mM LiCl; 10 mM lithium cacodylate pH 7.3; 1 µM compound, 0.2 µM DNA
[3] = tested on: F-21CTA-T (DNA, G4) AGGGCTAGGGCTAGGGCTAGGG; test: FRET-melting; settings: 1 mM KCl, 99 mM LiCl; 10 mM lithium cacodylate pH 7.3; 1 µM compound, 0.2 µM DNA
[4] = tested on: F-CEB25-WT-T (DNA, G4) AGGGTGGGTGTAAGTGTGGGTGGGT; test: FRET-melting; settings: 1 mM KCl, 99 mM LiCl; 10 mM lithium cacodylate pH 7.3; 1 µM compound, 0.2 µM DNA
[5] = tested on: 21CTA (DNA, G4) AGGGCTAGGGCTAGGGCTAGGG; test: G4-FID, thiazole orange displacement; settings: 100 mM KCl; 10 mM lithium cacodylate pH 7.3, 1% DMSO; thiazole orange displaced; 1 µM compound, 0.25 µM DNA
[6] = tested on: c-myc (myc22) (DNA, G4) TGAGGGTGGGTAGGGTGGGTAA; test: G4-FID, thiazole orange displacement; settings: 100 mM KCl; 10 mM lithium cacodylate pH 7.3, 1% DMSO; thiazole orange displaced; 1 µM compound, 0.25 µM DNA
[7] = tested on: CEB25-WT (DNA, G4) AAGGGTGGGTGTAAGTGTGGGTGGGT; test: G4-FID, thiazole orange displacement; settings: 100 mM KCl; 10 mM lithium cacodylate pH 7.3, 1% DMSO; thiazole orange displaced; 1 µM compound, 0.25 µM DNA
[8] = tested on: ds26 (DNA, duplex) CAATCGGATCGAATTCGATCCGATTG; test: G4-FID, thiazole orange displacement; settings: 100 mM KCl; 10 mM lithium cacodylate pH 7.3, 1% DMSO; thiazole orange displaced; 1 µM compound, 0.25 µM DNA
[9] = tested on: 22AG (DNA, G4) AGGGTTAGGGTTAGGGTTAGGG; test: G4-FID, thiazole orange displacement; settings: 100 mM KCl; 10 mM lithium cacodylate pH 7.3, 1% DMSO; thiazole orange displaced; 1 µM compound, 0.25 µM DNA
[10] = tested on: c-myc* (DNA, G4) TGAGGGTGGGTAGGGTGGGTAA; test: denaturing gel electrophoresis, 3'-exonuclease digestion; settings: 100 mM KCl or KClO4; covalent; platination at T20/A21 and G2/A3; 18 h, 32 °C, 10 µM DNA
[11] = tested on: CEB25-WT minisatellite sequence G4; test: PhenDV G4-FID assay; format: binding; settings: PhenDV 1.5 eq, K+100 buffer
Procedure: (§1) For the G4-FID assay, the oligonucleotides were dissolved in K^+100 buffer (10 mM lithium cacodylate buffer pH 7.3, 100 mM KCl, 1% DMSO). Oligonucleotide concentrations were determined on the basis of their absorbance at 260 nm. For the fluorimetric titration, the oligonucleotides were dissolved in K^+100 buffer without DMSO. For the FRET-melting assay, the oligonucleotides were dissolved in K^+1 buffer (10 mM lithium cacodylate buffer pH 7.3, 1 mM KCl, 99 mM LiCl) except for F-21-T. F-21-T was dissolved in K^+10 buffer (10 mM lithium cacodylate buffer pH 7.3, 10 mM KCl, 90 mM LiCl).
(§2) Prior to use, all oligonucleotides were pretreated by heating at 95 °C for 5 min, then rapidly cooled to 4 °C to favor the intramolecular folding by kinetic trapping. Duplex-DNA ds26 was prepared by heating the self-complementary strand at 90 °C for 5 min in K^+1 buffer followed by a slow cooling over 6 h.
(§3) Each G4-FID assay was performed in a 96-well Non-Binding Surface black with black bottom polystyrene microplates (Corning). Every ligand was tested on a line of the microplate, in duplicate. The microplate was filled with (a) K^+100 solution (qs for 200 μL), (b) 10 μL of a solution of pre-folded oligonucleotides (5 μM) and fluorescent probe (TO/TO-PRO-3 (10 μM—2 eq) or PhenDV (7,5 µM—1.5 eq)), and (c) an extemporaneously prepared 5 μM ligand solution in K^+100 buffer (0 to 100 μL) along the line of the microplate, i.e., from column A to column H: 0, 0.125, 0.25, 0.375, 0.5, 0.625, 0.75, 1.0, 1.25, 1.5, 2.0, and 2.5 μM. After 5 min of orbital shaking at 500 rpm, fluorescence is measured using the following experimental parameters: positioning delay of 0.5 s, 20 flashes per well, emission/excitation filters for TO at 485/520, TO-PRO-3 at 620/670, and PhenDV at 355/520 gain adjusted at 80% of the fluorescence from the most fluorescent well (i.e., a well from column A for TO and a well from column H).
(§4) In the case of PhenDV, the fluorescence of the unbound probe is not negligible. The percentage of displacement becomes (2) % PhenDV Displacement=F−F0/Fligand+probe−F0
(§5) The PhenDV displacement is calculated from the fluorescence intensity F; F(ligand+probe), which refers to the fluorescence of the probe in presence of the ligand (without G4); and F0, which is the fluorescence without added ligand. The term F(ligand+probe) is necessary as the ligand can quench the fluorescence of the probe. The percentage of displacement is then plotted as a function of the concentration of the added ligand. The DNA affinity was evaluated by the concentration of ligand required to decrease the fluorescence of the probe by 50%, was noted DC50, and was determined after non-linear fitting of the displacement curve.

[12] = tested on: 22AG human telomeric sequence G4; test: PhenDV G4-FID assay; format: binding; settings: PhenDV 1.5 eq, K+100 buffer
Procedure: as §1, §2, §3, §4, §5

c-myc G4 [13] = test: PhenDV G4-FID assay; format: binding; settings: PhenDV 1.5 eq, K+100 buffer
Procedure: as §1, §2, §3, §4, §5

[14] = tested on: c-myc (myc22) (DNA, G4) TGAGGGTGGGTAGGGTGGGTAA; test: G4-FID, PhenDV displacement; settings: 100 mM KCl; 10 mM lithium cacodylate pH 7.3, 1% DMSO; PhenDV displaced; 1 µM compound
[15] = tested on: CEB25-WT minisatellite sequence G4; test: TO-PRO-3 G4-FID assay; format: binding; settings: TO-PRO-3 2 eq, K+100 buffer
Procedure: as §1, §2, §3
(§6) The percentage of TO displacement is calculated from the fluorescence intensity (F), using (1) % TO displacement=1−F/F0 where F0 is the fluorescence from the fluorescent probe bound to DNA without added ligand.
as §5

[16] = tested on: 22AG human telomeric sequence G4; test: TO-PRO-3 G4-FID assay; format: binding; settings: TO-PRO-3 2 eq, K+100 buffer
Procedure: as §1, §2, §3, §6, §5

c-myc G4 [17] = test: TO-PRO-3 G4-FID assay; format: binding; settings: TO-PRO-3 2 eq, K+100 buffer
Procedure: as §1, §2, §3, §6, §5

[18] = tested on: 21CTA human telomeric sequence variant G4; format: binding; settings: PhenDV 1.5 eq, K+100 buffer
Procedure: as §1, §2, §3, §4, §5

[19] = tested on: CEB25-WT minisatellite sequence G4; test: TO G4-FID assay; format: binding; settings: TO 2 eq, K+100 buffer
Procedure: as §1, §2, §3, §6, §5

[20] = tested on: 22AG human telomeric sequence G4; test: TO G4-FID assay; format: binding; settings: TO 2 eq, K+100 buffer
Procedure: as §1, §2, §3, §6, §5

c-myc G4 [21] = test: TO G4-FID assay; format: binding; settings: TO 2 eq, K+100 buffer
Procedure: as §1, §2, §3, §6, §5

[22] = tested on: 21CTA human telomeric sequence variant G4; format: binding; settings: K+100 buffer
Procedure: as §1, §2, §3, §6, §5

How did the binding [1] turn out when `[C-]#Cc1ccccc1.[Pt+2].c1ccc(-c2cccc(-c3ccccn3)n2)nc1` was run?
Its binding is “no”.

What about the binding [2] of the same compound?
The binding was “no”.

What about the binding [3] of the same compound?
The binding was “no”.

And the binding [4]?
Its binding is “no”.

For `[Cl-].[Pt+2].c1cc(-c2ccc3ccccc3n2)nc(-c2ccc3ccccc3n2)c1`, which “% TO displacement” value [5] is on record?
The value was over 80%.

And the “% TO displacement” value [6]?
The value was over 80%.

And the “% TO displacement” value [7]?
The value was over 80%.

And the “% TO displacement” value [8]?
The value was under 20%.

What about the “% TO displacement” value [9] of the same compound?
The value was over 80%.

`[Cl-].[Pt+2].c1ccc(-c2cccc(-c3ccccn3)n2)nc1` was tested. Which ΔTm [1] did it give?
Its ΔTm is under 10 °C.

What about the ΔTm [2] of the same compound?
The ΔTm was under 10 °C.

And the ΔTm [3]?
Its ΔTm is under 10 °C.

And the ΔTm [4]?
The ΔTm was under 10 °C.

What about the binding [10] of the same compound?
Its binding is “yes”.

How did the “% of PhenDV displacement at 1 µM of ligand” value (from here on “% of PhenDV displacement”) [11] turn out when `C[n+]1cc(NC(=O)c2ccc3ccc4ccc(C(=O)Nc5cc6ccccc6[n+](C)c5)nc4c3n2)cc2ccccc21` [PhenDC3, reference compound] was run?
Its value is 99%.

And the “% of PhenDV displacement” value [12]?
The value was 92%.

What about the “% of PhenDV displacement” value (c-myc G4 [13]) of the same compound?
Its value is 85%.

What about the binding [14] of the same compound?
Its binding is “yes”.

And the “% of TOPRO3 displacement at 1 µM of ligand” value (from here on “% of TOPRO3 displacement”) [15]?
The value was 88%.

What about the “% of TOPRO3 displacement” value [16] of the same compound?
The value was 85%.

And the “% of TOPRO3 displacement” value (c-myc G4 [17])?
Its value is 73%.

What about the “% of PhenDV displacement” value [18] of the same compound?
Its value is 100%.

What about the “% of TO displacement at 1 µM of ligand” value [19] of the same compound?
The value was 90%.

What about the “% of TO displacement at 1 µM of ligand” value [20] of the same compound?
Its value is 95%.

And the “% of TO displacement at 1 µM of ligand” value (c-myc G4 [21])?
Its value is 96%.

And the “% of TO displacement at 1 µM of ligand” value ([22]; TO 2 eq)?
Its value is 95%.

What about the “% of TOPRO3 displacement” value ([22]; TO-PRO-3 2 eq) of the same compound?
The value was 83%.
